Experimental findings from ChEMBL document CHEMBL1201862, “PubChem BioAssay data set” (2004) are described below.

Assay [1] is described as follows: HepG2 cell cytotoxicity, dose response, cytotoxicity control for non-replicating M. tuberculosis project (AID 489018). Type of assay: functional. The settings on record: Mycobacterium tuberculosis.
A short description of assay [2]: cells. Type of assay: functional.
Assay [3] can be described thus: NIH-3T3 fibroblast cytotoxicity, dose response, cytotoxicity control, cell-based, fluorescence, Alamar Blue, secondary assay (AID 2327).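 Further: NIH-3T3 mouse fibroblasts cultured with fluconazole at 8 µg/mL.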 Type of assay: functional. Background: Resazurin is reduced to fluorescent resorufin, in cell work by metabolically active cells.
Assay [4] can be described thus: C. albicans growth with fluconazole, confirmation, fluorescence, retest (AID 2467). Type of assay: functional, cell-based.
The nature of assay [5]: THP-1 cell cytotoxicity, dose response, cytotoxicity control for non-replicating M. tuberculosis project (AID 489025). The format is functional.
The nature of assay [6]: Vero E6 cell cytotoxicity, dose response, cytotoxicity control for non-replicating M. tuberculosis project, secondary assay (AID 492998). The format is functional, VeroE6. The note with it: Vero C1008.
A short description of assay [7]: inhibitors of firefly luciferase expression or activity, dose response, H4 neuroglioma cells, luminescence (AID 1990). The format is functional, cell-based.
Assay [8] can be described thus: Luminescence Cell-Based Dose Response HTS to Identify Inhibitors of 5'UTR Stem-Loop Driven Prion Protein mRNA Translation in H4 Neuroglioblastoma Cells. [Related pubchem assays: 1827 (Project Summary), 1813 (Primary HTS)]. The format is functional.
Assay [9] is described as follows: inhibitors of SNCA 5'UTR-driven reporter translation, confirmation, H4 neuroglioma cells, luminescence (AID 1988). Type of assay: functional, cell-based.
A short description of assay [10]: microbe, parasite or virus in culture. The format is functional. The settings on record: Mycobacterium tuberculosis.
In assay [11] the test system is INS1. Description: beta cell apoptosis inhibitors, cytokine rescue, dose response, luminescence, retest (AID 449756).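 Further: cell death triggered by IL-1 beta plus TNF-alpha plus IFN-gamma mixture; protective hits raise ATP signal compared with cytokine alone wells.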 The note with it: Rattus norvegicus. Type of assay: functional, cell-based.
The target of assay [12] is T1, DNA repair protein RAD52 homolog (Homo sapiens, UniProt P43351).
T1 sequence (P43351 whole entry): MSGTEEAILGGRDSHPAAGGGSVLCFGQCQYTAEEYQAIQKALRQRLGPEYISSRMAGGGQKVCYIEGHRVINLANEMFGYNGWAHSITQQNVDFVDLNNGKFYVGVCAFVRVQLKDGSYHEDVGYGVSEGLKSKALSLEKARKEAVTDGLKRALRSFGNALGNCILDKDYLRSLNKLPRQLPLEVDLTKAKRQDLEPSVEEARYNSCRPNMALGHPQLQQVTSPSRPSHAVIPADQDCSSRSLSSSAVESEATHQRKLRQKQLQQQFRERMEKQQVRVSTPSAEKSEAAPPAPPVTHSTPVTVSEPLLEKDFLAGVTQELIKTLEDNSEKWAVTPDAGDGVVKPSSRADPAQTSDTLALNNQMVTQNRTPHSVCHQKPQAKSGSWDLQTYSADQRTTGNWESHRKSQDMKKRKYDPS
Type of assay: functional, biochemical.

The target in assay [13] is Paired box protein Pax-8 (Homo sapiens, UniProt Q06710). Nature of the assay: inhibitors of PAX8-driven TPO luciferase reporter, dose response, RMG-I cells, cherry-pick (AID 687027).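 Further: luciferase reporter driven by Pax8 target thyroperoxidase promoter measured by SteadyGlo luminescence.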 Type of assay: functional, cell-based. For orientation: In a reporter assay the amount or activity of a reporter protein is the signal.
Sequence of Paired box protein Pax-8 (Q06710 whole entry): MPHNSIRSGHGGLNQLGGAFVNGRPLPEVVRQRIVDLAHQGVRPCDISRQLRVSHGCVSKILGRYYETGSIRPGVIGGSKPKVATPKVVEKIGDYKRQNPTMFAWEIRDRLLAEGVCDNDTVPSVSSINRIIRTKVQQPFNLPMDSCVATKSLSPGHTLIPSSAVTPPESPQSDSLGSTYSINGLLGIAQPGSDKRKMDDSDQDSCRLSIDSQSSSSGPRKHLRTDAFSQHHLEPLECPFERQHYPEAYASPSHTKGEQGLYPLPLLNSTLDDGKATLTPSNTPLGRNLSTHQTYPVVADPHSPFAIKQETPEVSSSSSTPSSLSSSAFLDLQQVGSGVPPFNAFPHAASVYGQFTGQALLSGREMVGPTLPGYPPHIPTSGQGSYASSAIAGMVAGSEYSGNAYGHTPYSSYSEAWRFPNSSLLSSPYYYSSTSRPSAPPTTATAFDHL
The test system of assay [14] is Streptococcus sp. 'group A'. Description: growth inhibition of control SK(-) GAS strain, dose response, counter-screen for streptokinase expression inhibitor project, luminescence, kanamycin, BacTiterGlo, confirmation (AID 1900). The format is functional, organism-based.
In assay [15] the target is T2, Streptokinase A (Streptococcus pyogenes serotype M1, UniProt P10520).
T2 sequence (P10520 whole entry): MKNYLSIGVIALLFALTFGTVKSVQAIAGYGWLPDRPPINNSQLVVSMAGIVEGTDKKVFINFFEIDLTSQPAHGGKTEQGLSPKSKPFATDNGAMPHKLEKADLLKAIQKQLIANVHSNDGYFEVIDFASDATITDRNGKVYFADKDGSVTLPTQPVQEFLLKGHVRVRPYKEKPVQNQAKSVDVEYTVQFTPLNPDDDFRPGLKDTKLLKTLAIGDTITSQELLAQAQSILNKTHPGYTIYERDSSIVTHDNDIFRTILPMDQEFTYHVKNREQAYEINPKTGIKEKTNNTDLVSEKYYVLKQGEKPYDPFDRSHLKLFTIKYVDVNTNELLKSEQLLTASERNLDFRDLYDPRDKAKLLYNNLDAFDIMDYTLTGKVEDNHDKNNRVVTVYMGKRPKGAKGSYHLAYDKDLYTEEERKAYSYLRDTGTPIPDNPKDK
Description: S. pyogenes streptokinase expression inhibitors, potency, dose response, plasminogen activation absorbance, OD405 (AID 1914).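 Further: secreted streptokinase activity via plasminogen activation per viability signal from cell pellet.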 Type of assay: functional, Streptococcus pyogenes M1 GAS.

Assay [16] concerns Streptococcus. Description: Group A Streptococcus viability loss, dose response, counter-screen for streptokinase expression inhibitor project, luminescence, BacTiterGlo (AID 1915).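 Further: potency for reduction of bacterial viability or growth.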 The format is functional, organism-based. In general terms: Counterscreens check selectivity or assay interference.
The target of assay [17] is T3, G-protein coupled receptor 35 (Homo sapiens, UniProt Q9HC97). Nature of the assay: SAR analysis of Agonists of the GPR35 Receptor using an Image-Based Assay - Set 4. [Related pubchem assays (depositor defined):AID2013, AID2026]. The format is functional.
T3 sequence (Q9HC97 whole entry): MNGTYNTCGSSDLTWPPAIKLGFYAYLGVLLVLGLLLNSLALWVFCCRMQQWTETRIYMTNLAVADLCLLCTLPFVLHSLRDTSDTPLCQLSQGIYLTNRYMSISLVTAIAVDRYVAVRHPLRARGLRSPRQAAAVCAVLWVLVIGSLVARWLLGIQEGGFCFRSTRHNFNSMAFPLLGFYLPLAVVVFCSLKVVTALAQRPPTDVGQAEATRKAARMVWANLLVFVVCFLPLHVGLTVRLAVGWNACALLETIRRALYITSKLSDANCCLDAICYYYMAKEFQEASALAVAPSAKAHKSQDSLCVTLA
Assay [18] addresses T4, Cannabinoid receptor 1 (Homo sapiens, UniProt P21554). Description: SAR analysis of agonists of the Cannabinoid Receptor 1 using an Image-Based Assay - Set 4. [Related pubchem assays (depositor defined):AID2013, AID2026]. The format is functional.
Assay [19] has as its target T3, G-protein coupled receptor 35. Description: SAR analysis of Antagonists of the GPR35 Receptor using an Image-Based Assay - Set 6. [Related pubchem assays (depositor defined):AID2013, AID2026]. Type of assay: functional.
In assay [20] the target is T4, Cannabinoid receptor 1. Nature of the assay: SAR analysis of antagonists of the Cannabinoid Receptor 1 using an Image-Based Assay - Set 4. [Related pubchem assays (depositor defined):AID2013, AID2026]. The format is functional.
Assay [21] deals with T5, Coagulation factor XII (Homo sapiens, UniProt P00748).
T5 sequence (P00748 whole entry): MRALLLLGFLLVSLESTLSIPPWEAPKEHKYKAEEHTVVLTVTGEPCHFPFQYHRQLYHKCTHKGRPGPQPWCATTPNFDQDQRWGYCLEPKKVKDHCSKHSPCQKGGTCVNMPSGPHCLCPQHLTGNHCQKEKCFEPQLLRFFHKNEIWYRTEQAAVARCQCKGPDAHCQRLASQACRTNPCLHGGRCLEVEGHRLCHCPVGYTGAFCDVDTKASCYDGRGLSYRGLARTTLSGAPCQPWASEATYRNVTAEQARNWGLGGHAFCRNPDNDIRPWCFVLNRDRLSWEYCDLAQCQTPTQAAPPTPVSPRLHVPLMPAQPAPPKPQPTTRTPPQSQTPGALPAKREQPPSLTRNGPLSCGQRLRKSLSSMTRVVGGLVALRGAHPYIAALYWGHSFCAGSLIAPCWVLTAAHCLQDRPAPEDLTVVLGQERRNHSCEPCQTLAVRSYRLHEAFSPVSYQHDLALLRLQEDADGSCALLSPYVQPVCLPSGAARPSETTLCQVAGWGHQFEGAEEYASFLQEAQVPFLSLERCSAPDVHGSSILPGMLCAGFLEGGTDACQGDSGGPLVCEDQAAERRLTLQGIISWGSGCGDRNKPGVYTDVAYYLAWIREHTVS
The format is functional.

The target of assay [22] is G-protein coupled receptor 55 (Homo sapiens, UniProt Q9Y2T6). Description: SAR Analysis of Selective Antagonists of GPR55 using an Image-Based Assay - Set 4. [Related pubchem assays (depositor defined):AID2013, AID2026]. Type of assay: functional.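 Further: antagonism of response to 5 µM lysophosphatidylinositol agonist.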
Sequence of G-protein coupled receptor 55 (Q9Y2T6 whole entry): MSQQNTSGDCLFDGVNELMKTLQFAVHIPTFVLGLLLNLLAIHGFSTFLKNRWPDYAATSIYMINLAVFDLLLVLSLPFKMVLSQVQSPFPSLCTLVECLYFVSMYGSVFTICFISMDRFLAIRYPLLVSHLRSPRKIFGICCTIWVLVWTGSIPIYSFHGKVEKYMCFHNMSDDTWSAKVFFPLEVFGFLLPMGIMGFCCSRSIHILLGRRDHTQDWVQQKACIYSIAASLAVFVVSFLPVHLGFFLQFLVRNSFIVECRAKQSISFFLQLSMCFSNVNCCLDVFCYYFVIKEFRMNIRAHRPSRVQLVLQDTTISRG
Assay [23] addresses T6, Cannabinoid receptor 2 (Homo sapiens, UniProt P34972). Description: SAR analysis of antagonists of the Cannabinoid Receptor 2 using an Image-Based Assay - Set 3. [Related pubchem assays (depositor defined):AID2013, AID2026]. The format is functional.
For assay [24], the target named is T6, Cannabinoid receptor 2. Nature of the assay: SAR analysis of agonists of the Cannabinoid Receptor 2 using an Image-Based Assay - Set 3. [Related pubchem assays (depositor defined):AID2013, AID2026]. The format is functional.
Assay [25] concerns the target T7, Probable nicotinate-nucleotide adenylyltransferase (Staphylococcus aureus (strain N315), UniProt P65502). The format is functional, Staphylococcus aureus subsp. aureus N315.
In assay [26] the target is T7, Probable nicotinate-nucleotide adenylyltransferase. Type of assay: functional, Staphylococcus aureus subsp. aureus N315. The settings on record: read-out: IC50_Mean.

The source made the active and inactive calls. A value given as a limit tells only on which side of the number the result lay.
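Wherever IC50 Mean is given: confirmatory dose-response retesting of NadD inhibitor hits first found in an ultra-high-throughput screen.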

T7 sequence (P65502 whole entry): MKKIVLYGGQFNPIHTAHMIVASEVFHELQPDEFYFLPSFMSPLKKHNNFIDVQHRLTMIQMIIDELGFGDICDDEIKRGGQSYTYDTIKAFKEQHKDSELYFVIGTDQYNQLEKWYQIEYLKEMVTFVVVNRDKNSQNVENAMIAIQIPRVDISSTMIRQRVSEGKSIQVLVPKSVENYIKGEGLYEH
T4 sequence (P21554 whole entry): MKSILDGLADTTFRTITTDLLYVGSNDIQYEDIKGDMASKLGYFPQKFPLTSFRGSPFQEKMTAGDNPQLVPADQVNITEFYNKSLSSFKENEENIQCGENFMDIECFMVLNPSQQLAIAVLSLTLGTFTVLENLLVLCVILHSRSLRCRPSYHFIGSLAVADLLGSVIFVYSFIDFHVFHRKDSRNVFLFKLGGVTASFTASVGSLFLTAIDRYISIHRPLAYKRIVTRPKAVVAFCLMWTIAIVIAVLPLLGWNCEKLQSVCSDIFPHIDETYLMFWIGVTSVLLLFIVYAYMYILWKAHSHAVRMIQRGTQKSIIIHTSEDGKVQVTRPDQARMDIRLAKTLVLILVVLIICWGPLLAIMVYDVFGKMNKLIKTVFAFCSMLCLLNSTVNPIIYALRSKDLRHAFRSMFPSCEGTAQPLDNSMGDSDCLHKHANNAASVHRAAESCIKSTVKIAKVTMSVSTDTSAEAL
T6 sequence (P34972 whole entry): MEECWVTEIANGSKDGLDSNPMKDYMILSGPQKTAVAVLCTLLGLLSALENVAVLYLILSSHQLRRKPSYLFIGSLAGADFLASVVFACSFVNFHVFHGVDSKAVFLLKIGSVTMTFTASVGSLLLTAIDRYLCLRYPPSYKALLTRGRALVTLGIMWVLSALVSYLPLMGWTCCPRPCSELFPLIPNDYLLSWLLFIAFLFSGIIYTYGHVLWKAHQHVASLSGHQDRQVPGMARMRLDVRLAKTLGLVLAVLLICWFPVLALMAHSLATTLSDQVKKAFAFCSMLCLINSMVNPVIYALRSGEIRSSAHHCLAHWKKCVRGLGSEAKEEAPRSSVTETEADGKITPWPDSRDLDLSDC

Consider `O=C(COC(=O)CCc1c[nH]c2ccccc12)Nc1ccc([N+](=O)[O-])cc1`, for which the CC50 in assay [1] was > 20 µM (active). Also, the IC50 in assay [2] was 9.62 µM (active).
The EC50 is the midpoint of the concentration-response curve. For `COc1cccc(-c2nnc(NC(=O)c3ccc4ncsc4c3)o2)c1`, the EC50 in assay [3] was > 150 µM (inconclusive); in [4] it was 1.9 µM (active). The CC50 in [5] was 23.5 µM (active); in assay [1] it was > 20 µM (active); in assay [6] it was 13 µM (active). Further, the IC50 in assay [2] is 11.7 µM (active).
The term AC50 denotes the concentration at which the activity in the assay is half-maximal. In the case of `Cc1cc(C)n(-c2nc(NCCN(C)C)c3c4c(sc3n2)CCCC4)n1`, the EC50 in assay [3] was 8.65 µM (inconclusive); in [7] it was 6.98 µM (active); in assay [8], 8.38 µM (active); in assay [9], 8.07 µM (active); in assay [4] it was 11.3 µM (active). The CC50 was 10.3 µM (active) in assay [10], 12.7 µM (active) in assay [5], 9.27 µM (active) in assay [1] and 5.33 µM (active) in assay [6]. The IC50 in [2] is 13.8 µM (active). Besides, the AC50 in [11] was 8.03 µM (active); in assay [12], 7 µM (active); in assay [13] it was 22.9 µM (active).
As to `Cc1ccc(-c2cc(C(=O)Nc3ccc(S(=O)(=O)Nc4cc(C)on4)cc3)c3ccccc3n2)c(C)c1`, the EC50 was 12.1 µM (active) in assay [14]; 9.4 µM (active) in assay [15]; 25.2 µM (active) in assay [16]; > 32 µM (inactive) in [17]; > 32 µM (inactive) in assay [18]; > 32 µM (inactive) in assay [24]. Besides, the IC50 in assay [19] was > 32 µM (inactive); in assay [20], 9.14 µM (active); in assay [21] it was > 50 µM (inactive); in assay [22], > 32 µM (inactive); in assay [23], > 32 µM (inactive); in assay [25], 4.38 µM (active). In addition, the IC50 in assay [26] is 15.4 µM (active).
